Experimental data from ChEMBL document CHEMBL1759846, “Identification of potent, soluble, and orally active TRPV1 antagonists” (Bioorg Med Chem Lett, 2011).
≈ marks a conversion by molar mass, not a printed value. Calls of active or inactive are those of the source. The calls are words filed in the database; no cut-off is given here.

Legend:
[1] = Octanol-water partition coefficient, log D of the compound at pH 7.4 by RP-HPLC analysis; type: physicochemical
[2] = Aqueous solubility of the compound in 0.05 M phosphate buffer at pH 7.4 by shake-flask method; type: physicochemical
[3] = target: Transient receptor potential cation channel subfamily V member 1 (Homo sapiens, UniProt Q8NER1); assay: Antagonist activity at human TRPV1 expressed in CHO-K1 cells assessed as inhibition of capsaicin-induced intracellular Ca2+ influx by FLIPR assay; type: functional, cell-based
Sequence of Transient receptor potential cation channel subfamily V member 1 (Q8NER1 whole entry): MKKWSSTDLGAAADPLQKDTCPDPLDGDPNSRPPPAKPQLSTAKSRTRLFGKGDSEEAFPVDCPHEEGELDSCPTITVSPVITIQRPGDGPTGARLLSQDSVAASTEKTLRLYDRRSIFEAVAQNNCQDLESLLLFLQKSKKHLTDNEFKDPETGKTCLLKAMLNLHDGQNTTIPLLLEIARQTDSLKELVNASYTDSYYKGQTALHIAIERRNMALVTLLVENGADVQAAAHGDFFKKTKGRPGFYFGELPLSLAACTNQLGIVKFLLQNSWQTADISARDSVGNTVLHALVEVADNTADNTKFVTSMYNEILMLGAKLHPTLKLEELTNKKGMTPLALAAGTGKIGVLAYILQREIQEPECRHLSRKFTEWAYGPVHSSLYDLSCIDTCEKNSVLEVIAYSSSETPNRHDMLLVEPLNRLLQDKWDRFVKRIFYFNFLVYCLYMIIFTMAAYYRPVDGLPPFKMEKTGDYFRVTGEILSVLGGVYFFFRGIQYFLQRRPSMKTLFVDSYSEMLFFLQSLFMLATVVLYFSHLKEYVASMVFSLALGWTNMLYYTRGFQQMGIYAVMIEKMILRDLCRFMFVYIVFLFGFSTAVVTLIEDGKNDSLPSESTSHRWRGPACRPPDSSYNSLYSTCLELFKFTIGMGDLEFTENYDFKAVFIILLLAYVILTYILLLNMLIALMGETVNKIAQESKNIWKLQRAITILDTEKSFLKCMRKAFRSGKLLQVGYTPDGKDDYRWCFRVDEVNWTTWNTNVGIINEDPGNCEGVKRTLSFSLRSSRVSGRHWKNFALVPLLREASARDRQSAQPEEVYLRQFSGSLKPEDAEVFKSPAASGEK

[4] = Intrinsic clearance in rat liver microsomes; type: ADME, Microsome
[5] = Intrinsic clearance in human liver microsomes; type: ADME, Microsome
[6] = system: Hepatocyte; assay: Intrinsic clearance in rat hepatocytes; type: ADME, cell-based, Liver
[7] = Plasma protein binding in human; type: ADME, cell-free; settings: read-out: PPB (converted)
[8] = Plasma protein binding in Wistar rat; type: ADME, cell-free; settings: read-out: PPB (converted)
[9] = Oral bioavailability in Wistar rat at 10 mg/kg; type: ADME, organism-based; settings: in vivo
[10] = Half life in Wistar rat plasma at 10 mg/kg, po and 2 mg/kg, iv; type: ADME, organism-based
[11] = Clearance in Wistar rat at 10 mg/kg, po and 2 mg/kg, iv; type: ADME, organism-based; settings: in vivo
[12] = Cmax in Wistar rat at 10 mg/kg, po; type: ADME, organism-based; parameters: dose 10 mg/kg, route oral; settings: in vivo
[13] = Volume of distribution at steady state in Wistar rat at 10 mg/kg, po and 2 mg/kg, iv; type: ADME, organism-based; settings: in vivo, read-out: Vdss
[14] = Tmax in Wistar rat at 10 mg/kg, po; type: ADME, organism-based; parameters: dose 10 mg/kg, route oral; settings: in vivo
[15] = system: Rattus norvegicus; assay: Antiinflammatory activity against capsaicin-induced thermal hyperalgesia in rat assessed as paw withdrawal latency at 3 to 30 umol/kg, po administered 2 hrs before capsaicin challenge measured after 15 mins; type: functional, organism-based
[16] = system: Rattus norvegicus; assay: Antiinflammatory activity against capsaicin-induced thermal hyperalgesia in po dosed rat assessed as paw withdrawal latency administered 2 hrs before capsaicin challenge measured after 15 mins; type: functional

| SMILES | logD [1] | solubility thermodynamic [2] [µg/mL] | IC50 [3] [nM] | microsomal CLint [4] [µL/min/mg] | microsomal CLint [5] [µL/min/mg] | fraction unbound [7] | fraction unbound [8] | other results |
| --- | --- | --- | --- | --- | --- | --- | --- | --- |
| COCCN(C)Cc1c(C(=O)N[C@@H]2CCC[C@H](O)C2)noc1-c1ccc(C(F)(F)F)cc1 | 4 | 83 (≈ 182 µM) | 7.94 | – | – | – | – | – |
| CC(C)NCc1c(C(=O)N[C@@H]2CCC[C@H](O)C2)noc1-c1ccc(C(F)(F)F)cc1 | 3 | 82 (≈ 193 µM) | – | < 12 | < 12 | 0.25 | 0.271 | bioavailability [9]: 20%; half-life [10]: 7.9 h; clearance [11]: 12.5 mL/min/kg; CL [6]: < 6 µL/min; Cmax [12]: 720 nM; Vd [13]: 5.9 L/kg; Tmax [14]: 2 h |
| CC(C)CNCc1c(C(=O)N[C@@H]2CCC[C@H](O)C2)noc1-c1ccc(C(F)(F)F)cc1 | 4.3 | 78 (≈ 177 µM) | 1 | 107 | 12 | 0.177 | 0.242 | bioavailability [9]: 33%; Activity [15]: Active; MED [16]: 30 µmol/kg; half-life [10]: 4 h; clearance [11]: 69 mL/min/kg; CL [6]: 12 µL/min; Cmax [12]: 420 nM; Vd [13]: 7.6 L/kg; Tmax [14]: 2 h |
| CN(CCS(C)(=O)=O)Cc1c(C(=O)N[C@@H]2CCC[C@H](O)C2)noc1-c1ccc(C(F)(F)F)cc1 | 3.6 | 26 (≈ 51.6 µM) | 1260 | – | – | – | – | – |
| CN(Cc1c(C(=O)N[C@@H]2CCC[C@H](O)C2)noc1-c1ccc(C(F)(F)F)cc1)C1CCOCC1 | 3.7 | 82 (≈ 170 µM) | 79.4 | – | – | – | – | – |
| CC(C)[C@H](CO)NCc1c(C(=O)N[C@@H]2CCC[C@H](O)C2)noc1-c1ccc(C(F)(F)F)cc1 | 4.2 | 79 (≈ 168 µM) | 2.51 | 41 | 12 | 0.256 | 0.116 | bioavailability [9]: 4%; half-life [10]: 4.3 h; clearance [11]: 13.5 mL/min/kg; Cmax [12]: 230 nM; Vd [13]: 3.5 L/kg; Tmax [14]: 1.5 h |
| C[C@H](NCc1c(C(=O)N[C@@H]2CCC[C@H](O)C2)noc1-c1ccc(C(F)(F)F)cc1)C(F)(F)F | 5.6 | 3.5 (≈ 7.3 µM) | 0.158 | 49 | 66 | 0.048 | 0.037 | – |
| CN(Cc1c(C(=O)N[C@@H]2CCC[C@H](O)C2)noc1-c1ccc(C(F)(F)F)cc1)[C@@H]1CCOC1 | 4.5 | 6.6 (≈ 14.1 µM) | 12.6 | – | – | – | – | – |
| O=C(N[C@@H]1CCC[C@H](O)C1)c1noc(-c2ccc(C(F)(F)F)cc2)c1CNCC1CCC1 | 4.4 | – | 1.26 | 144 | 21 | – | – | – |
| CCN(Cc1c(C(=O)N[C@@H]2CCC[C@H](O)C2)noc1-c1ccc(C(F)(F)F)cc1)C(C)C | 4.1 | 85 (≈ 187 µM) | 25.1 | – | – | – | – | – |

Continued, in another order:

| logD [1] | solubility thermodynamic [2] [µg/mL] | IC50 [3] [nM] | microsomal CLint [4] [µL/min/mg] | microsomal CLint [5] [µL/min/mg] | fraction unbound [7] | fraction unbound [8] | SMILES | other results |
| --- | --- | --- | --- | --- | --- | --- | --- | --- |
| 4.1 | 81 (≈ 173 µM) | 10 | – | – | – | – | CC(C)[C@@H](CO)NCc1c(C(=O)N[C@@H]2CCC[C@H](O)C2)noc1-c1ccc(C(F)(F)F)cc1 | – |
| 4.7 | 87 (≈ 176 µM) | 10 | – | – | – | – | O=C(N[C@@H]1CCC[C@H](O)C1)c1noc(-c2ccc(C(F)(F)F)cc2)c1CNCC(O)C(F)(F)F (some centres undefined) | – |
| 4 | 80 (≈ 182 µM) | 25.1 | – | – | – | – | CC(C)N(C)Cc1c(C(=O)N[C@@H]2CCC[C@H](O)C2)noc1-c1ccc(C(F)(F)F)cc1 | – |
| 3.5 | 77 (≈ 176 µM) | – | 55 | 48 | – | – | O=C(N[C@@H]1CCC[C@H](O)C1)c1noc(-c2ccc(C(F)(F)F)cc2)c1CNCC1CC1 | – |
| 3.6 | 31 (≈ 64.4 µM) | 5.01 | – | – | – | – | CN(Cc1c(C(=O)N[C@@H]2CCC[C@H](O)C2)noc1-c1ccc(C(F)(F)F)cc1)C[C@@H]1CCCO1 | – |
| 3.5 | 89 (≈ 190 µM) | 3.16 | 93 | 12 | 0.361 | 0.168 | CC(C)(CO)CNCc1c(C(=O)N[C@@H]2CCC[C@H](O)C2)noc1-c1ccc(C(F)(F)F)cc1 | CL [6]: 10 µL/min |
| 3.6 | 30 (≈ 60.7 µM) | 3160 | – | – | – | – | NC(=O)C1CCN(Cc2c(C(=O)N[C@@H]3CCC[C@H](O)C3)noc2-c2ccc(C(F)(F)F)cc2)CC1 | – |
| 4.3 | 26 (≈ 59.4 µM) | 15.8 | – | – | – | – | O=C(N[C@@H]1CCC[C@H](O)C1)c1noc(-c2ccc(C(F)(F)F)cc2)c1CNC1CCC1 | – |
| 3.7 | 80 (≈ 181 µM) | 126 | – | – | – | – | COCCNCc1c(C(=O)N[C@@H]2CCC[C@H](O)C2)noc1-c1ccc(C(F)(F)F)cc1 | – |
| 4.5 | 21 (≈ 49.6 µM) | 3.16 | < 12 | 17 | 0.118 | 0.064 | O=C(N[C@@H]1CCC[C@H](O)C1)c1noc(-c2ccc(C(F)(F)F)cc2)c1CNC1CC1 | CL [6]: < 6 µL/min |
